How the values were obtained:
[1] = system: TC-71 (Ewing's sarcoma) cells; test: Cell proliferation assay, TC-71 (Alamar Blue); format: cell-based; details: 72 h with compound, EC50 ranges as class symbols
Experimental: Cell Proliferation Assays
Compounds were tested for their anti-proliferative effects in the TC-71 (Ewing's sarcoma) and HCT 116 (colorectal carcinoma) cancer cell lines in vitro. Published scientific data has described that interference with the Insulin-like Growth Factor-1 Receptor (IGF-1R) signaling pathway reduces the proliferation of TC-71 cells. Therefore TC-71 cells served as a positive control cell line for monitoring the activity of compounds against IGF-1R-mediated cell proliferation. […] Therefore the HCT 116 cell line served as a negative control.
2000 TC-71 cells or 1000 HCT 116 cells were seeded per well in 180 μL IMDM+10% foetal calf serum (FCS)+ penicillin/streptomycin into 96-well microtitre plates. The plates were placed in a cell culture incubator (37° C. in a humidified atmosphere of […]/5 CO2) overnight. The following day, serial dilutions of compounds, prepared in duplicates, were transferred onto the cell layers (controls without compound). The cells were cultivated for a further 72 h in the cell culture incubator. 20 μL of Alamar Blue™ (Serotec Ltd, Düsseldorf, Germany) was added to each well and the plates incubated for 7 h in the cell culture incubator. Fluorescence (extinction wavelength of 544 nm and emission at 590 nm) was then measured and the normalized data fitted by iterative calculation with a sigmoidal curve analysis program (Graph Pad Prism) with a variable Hill slope to determine the IC50 values.

[2] = target: T1, cytoplasmic kinase domain of human IGF-1R (IGF-1R-GST) (Homo sapiens, UniProt P08069); test: Insulin-like growth factor-1 receptor (IGF-1R) kinase assay (DELFIA); format: biochemical; details: IGF-1R-GST kinase activity, read-out: IGF1R IC50
T1 construct: cytoplasmic kinase domain of human IGF-1R (amino acids 964-1370); GST (glutathione-S-transferase); made in house; host or cells: High Five insect cells (Invitrogen)
Procedure, shortened: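 GST-tagged IGF-1R cytoplasmic kinase domain phosphorylates pEY with biotinylated pEY for 40 min at RT; EDTA stop. Product captured on streptavidin, detected with europium anti-phosphotyrosine antibody by DELFIA time-resolved fluorescence; IC50 from inhibition curves.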

T1 sequence (P08069 964-1367 limits assumed): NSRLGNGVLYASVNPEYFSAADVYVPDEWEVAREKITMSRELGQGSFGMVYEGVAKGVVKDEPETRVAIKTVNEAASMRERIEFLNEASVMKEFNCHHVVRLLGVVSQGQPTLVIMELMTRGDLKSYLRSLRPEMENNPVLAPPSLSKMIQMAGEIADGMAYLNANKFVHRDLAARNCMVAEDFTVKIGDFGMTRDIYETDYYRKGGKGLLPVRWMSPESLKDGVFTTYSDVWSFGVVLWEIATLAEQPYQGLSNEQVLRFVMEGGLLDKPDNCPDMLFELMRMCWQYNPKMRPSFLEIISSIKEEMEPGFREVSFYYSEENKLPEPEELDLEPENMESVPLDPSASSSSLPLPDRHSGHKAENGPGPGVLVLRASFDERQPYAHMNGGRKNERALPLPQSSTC

| SMILES | EC50 [1] [nM] | IC50 [2] [nM] |
| --- | --- | --- |
| Cc1cc(C2CCN(CCS(C)(=O)=O)CC2)ccc1Nc1ncc(Cl)c(NCc2cccc3c2C(C)(C)C(=O)N3)n1 [Example I-216] | 50 to 250 | 2 |
| Cc1cc(C2CCN(CCO)CC2)ccc1Nc1ncc(Cl)c(NCc2cccc3c2C(C)(C)C(=O)N3)n1 [Example I-217] | 50 to 250 | 1 |
| COCCN1CCC(c2ccc(Nc3ncc(Cl)c(NCc4cccc5c4C(C)(C)C(=O)N5)n3)c(C)c2)CC1 [Example I-218] | < 50 | 1 |
| Cc1cc(C2CCN(CC(N)=O)CC2)ccc1Nc1ncc(Cl)c(NCc2cccc3c2C(C)(C)C(=O)N3)n1 [Example I-220] | 50 to 250 | 2 |
| COCCN1CCC(c2ccc(Nc3ncc(Br)c(NCc4cccc5c4C(C)(C)C(=O)N5)n3)c(C)c2)CC1 [Example I-221] | < 50 | 0.98 |
| COCC(=O)N1CCC(c2ccc(Nc3ncc(Cl)c(NCc4cccc5c4C(C)(C)C(=O)N5)n3)c(C)c2)CC1 [Example I-292] | 50 to 250 | 5 |
| CCNC(=O)N1CCC(c2ccc(Nc3ncc(Cl)c(NCc4cccc5c4C(C)(C)C(=O)N5)n3)c(C)c2)CC1 [Example I-293] | 50 to 250 | 10 |
| Cc1cc(C2CCN(C(N)=O)CC2)ccc1Nc1ncc(Cl)c(NCc2cccc3c2C(C)(C)C(=O)N3)n1 [Example I-294] | 250 to 3000 | 7 |
| CNC1(C(=O)N2CCC(c3ccc(Nc4ncc(Cl)c(NCc5cccc6c5C(C)(C)C(=O)N6)n4)c(C)c3)CC2)CC1 [Example I-295] | 50 to 250 | 4 |
| COc1cc(C2CCN(C(=O)CO)CC2)ccc1Nc1ncc(Cl)c(NCc2cccc3c2C(C)(C)C(=O)N3)n1 [Example I-296] | 50 to 250 | 1 |
| Cc1cc(C2CCN(C(=O)C(C)(C)O)CC2)ccc1Nc1ncc(Cl)c(NCc2cccc3c2C(C)(C)C(=O)N3)n1 [Example I-297] | 50 to 250 | 9 |
| Cc1cc(C2CCN(C(=O)CO)CC2)ccc1Nc1ncc(Cl)c(NCc2cccc3c2C(C)(C)C(=O)N3)n1 [Example I-298] | 50 to 250 | 7 |
| CNC1(C(=O)N2CCC(c3ccc(Nc4ncc(Cl)c(NCc5cccc6c5C(C)(C)C(=O)N6)n4)cc3)CC2)CC1 [Example I-299] | < 50 | 8 |
| COc1cc(C2CCN(C(=O)C(C)(C)O)CC2)ccc1Nc1ncc(Cl)c(NCc2cccc3c2C(C)(C)C(=O)N3)n1 [Example I-300] | < 50 | 11 |
| COc1cc(C2CCN(CC(C)(C)O)CC2)ccc1Nc1ncc(C(F)(F)F)c(NCc2cccc3c2C(C)(C)C(=O)N3)n1 [Example I-302] | < 50 | 0.6 |
| Cc1cc(Nc2ncc(C(F)(F)F)c(NCc3cccc4c3C(C)(C)C(=O)N4)n2)ccc1C1CCN(CC(C)(C)O)CC1 [Example I-303] | < 50 | 0.2 |
| COc1cc(N2CCN(CC(C)(C)O)CC2)ccc1Nc1ncc(C(F)(F)F)c(NCc2cccc3c2C(C)(C)C(=O)N3)n1 [Example I-304] | < 50 | 1 |
| Cc1cc(N2CCN(CC(C)(C)O)CC2)ccc1Nc1ncc(C(F)(F)F)c(NCc2cccc3c2C(C)(C)C(=O)N3)n1 [Example I-305] | 50 to 250 | 2 |
| Cc1cc(N2CCN(C)CC2)ccc1Nc1ncc(C(F)(F)F)c(NCc2cccc3c2C(C)(C)C(=O)N3)n1 [Example I-307] | < 50 | 1 |
| Cc1cc(C2CCN(C)CC2)ccc1Nc1ncc(C(F)(F)F)c(NCc2cccc3c2C(C)(C)C(=O)N3)n1 [Example I-308] | < 50 | 0.8 |

| SMILES | EC50 [1] [nM] | IC50 [2] [nM] |
| --- | --- | --- |
| Cc1cc(C2CCN(CC(C)(C)O)CC2)ccc1Nc1ncc(C(F)(F)F)c(NCc2cccc3c2C(C)(C)C(=O)N3)n1 [Example I-309] | < 50 | 1 |
| CC(C)(O)CN1CCC(c2ccc(Nc3ncc(C(F)(F)F)c(NCc4cccc5c4C(C)(C)C(=O)N5)n3)c(OC(F)F)c2)CC1 [Example I-310] | 50 to 250 | 5 |
| Cc1cc(Nc2ncc(C(F)(F)F)c(NCc3cccc4c3C(C)(C)C(=O)N4)n2)c(F)cc1C1CCN(CC(C)(C)O)CC1 [Example I-311] | 50 to 250 | 15 |
| Cc1cc(C2CCN(CC(C)(C)O)CC2)c(C)cc1Nc1ncc(C(F)(F)F)c(NCc2cccc3c2C(C)(C)C(=O)N3)n1 [Example I-312] | 50 to 250 | 27 |
| Cc1c(Nc2ncc(C(F)(F)F)c(NCc3cccc4c3C(C)(C)C(=O)N4)n2)ccc(C2CCN(CC(C)(C)O)CC2)c1C [Example I-313] | < 50 | 0.5 |
| CCc1cc(C2CCN(CC(C)(C)O)CC2)ccc1Nc1ncc(C(F)(F)F)c(NCc2cccc3c2C(C)(C)C(=O)N3)n1 [Example I-314] | 50 to 250 | 5 |
| Cc1cc(N2CCN(CC(C)(C)O)CC2)ccc1Nc1ncc(Br)c(NCc2cccc3c2C(C)(C)C(=O)N3)n1 [Example I-317] | < 50 | 6 |
| Cc1cc([C@H]2CCCN(CC(C)(C)O)C2)ccc1Nc1ncc(Br)c(NCc2cccc3c2C(C)(C)C(=O)N3)n1 [Example I-319] | < 50 | 2 |
| Cc1cc([C@@H]2CCCN(CC(C)(C)O)C2)ccc1Nc1ncc(Br)c(NCc2cccc3c2C(C)(C)C(=O)N3)n1 [Example I-320] | < 50 | 0.9 |
| COc1cc(N2CCN(CC(C)(C)O)CC2)ccc1Nc1ncc(Br)c(NCc2cccc3c2C(C)(C)C(=O)N3)n1 [Example I-321] | < 50 | 2 |
| COc1cc(C2CCN(CC(C)(C)O)CC2)ccc1Nc1ncc(Br)c(NCc2cccc3c2C(C)(C)C(=O)N3)n1 [Example I-323] | < 50 | 0.9 |
| Cc1cc(Nc2ncc(Br)c(NCc3cccc4c3C(C)(C)C(=O)N4)n2)ccc1C1CCN(CC(C)(C)O)CC1 [Example I-324] | < 50 | 0.1 |
| Cc1cc(C2CCN(CC(O)C(F)(F)F)CC2)ccc1Nc1ncc(Cl)c(NCc2cccc3c2C(C)(C)C(=O)N3)n1 (centres unmarked) [Example I-326] | 50 to 250 | 2 |
| Cc1cc(N2CCN(C)CC2)ccc1Nc1ncc(Cl)c(NCc2cccc3c2C(C)(C)C(=O)N3)n1 [Example I-330] | < 50 | 3 |
| COc1cc(C2CCN(CC(C)(C)O)CC2)ccc1Nc1ncc(Cl)c(NCc2cccc3c2C(C)(C)C(=O)N3)n1 [Example I-331] | < 50 | 1 |
| Cc1cc(C2CCN(C)CC2)ccc1Nc1ncc(Cl)c(NCc2cccc3c2C(C)(C)C(=O)N3)n1 [Example I-332] | < 50 | 1 |
| Cc1cc(Nc2ncc(Cl)c(NCc3cccc4c3C(C)(C)C(=O)N4)n2)ccc1C1CCN(CC(C)(C)O)CC1 [Example I-334] | < 50 | 0.4 |
| COc1cc(N2CCN(CC(C)(C)O)CC2)ccc1Nc1ncc(Cl)c(NCc2cccc3c2C(C)(C)C(=O)N3)n1 [Example I-335] | < 50 | 3 |
| Cc1cc(N2CCN(CC(C)(C)O)CC2)ccc1Nc1ncc(Cl)c(NCc2cccc3c2C(C)(C)C(=O)N3)n1 [Example I-336] | 50 to 250 | 4 |
| Cc1cc(Nc2ncc(Cl)c(NCc3cccc4c3C(C)(C)C(=O)N4)n2)c(F)cc1C1CCN(CC(C)(C)O)CC1 [Example I-337] | 250 to 3000 | 9 |
